Test results published in patent US20200165257A1, “INHIBITORS OF PHOSPHOINOSITIDE 3-KINASE AND HISTONE DEACETYLASE FOR TREATMENT OF CANCER” (THE UNITED STATES OF AMERICA, AS REPRESENTED BY THE …, priority 2017, published 2020).
Read-outs that look alike come from different tables or passages of the source.

Legend:
Leukemia Cell Line SR = experiment: cells; assay type: cell-based; conditions: Homo sapiens, read-out: inhibition of proliferation
Leukemia Cell Line K-562 = assay type: cell-based; conditions: Homo sapiens
[1] = system: Breast Cancer Cell Line HS 578T; assay type: cell-based; conditions: Homo sapiens, read-out: inhibition of proliferation
[2] = system: Leukemia Cell Line HL-60(TB); assay type: cell-based; conditions: Homo sapiens
[3] = system: Melanoma Cell Line UACC-62; experiment: cells; assay type: cell-based; conditions: Homo sapiens
HDAC6 = molecular target: T1, HDAC6 (Homo sapiens, UniProt Q9UBN7); experiment: HDAC Fluorescent Activity Assay; assay type: biochemical; conditions: symbols ++ / +; read-out: HDAC6 Inhibition Activity (IC50 class)
T1 sequence (Q9UBN7 1-1215): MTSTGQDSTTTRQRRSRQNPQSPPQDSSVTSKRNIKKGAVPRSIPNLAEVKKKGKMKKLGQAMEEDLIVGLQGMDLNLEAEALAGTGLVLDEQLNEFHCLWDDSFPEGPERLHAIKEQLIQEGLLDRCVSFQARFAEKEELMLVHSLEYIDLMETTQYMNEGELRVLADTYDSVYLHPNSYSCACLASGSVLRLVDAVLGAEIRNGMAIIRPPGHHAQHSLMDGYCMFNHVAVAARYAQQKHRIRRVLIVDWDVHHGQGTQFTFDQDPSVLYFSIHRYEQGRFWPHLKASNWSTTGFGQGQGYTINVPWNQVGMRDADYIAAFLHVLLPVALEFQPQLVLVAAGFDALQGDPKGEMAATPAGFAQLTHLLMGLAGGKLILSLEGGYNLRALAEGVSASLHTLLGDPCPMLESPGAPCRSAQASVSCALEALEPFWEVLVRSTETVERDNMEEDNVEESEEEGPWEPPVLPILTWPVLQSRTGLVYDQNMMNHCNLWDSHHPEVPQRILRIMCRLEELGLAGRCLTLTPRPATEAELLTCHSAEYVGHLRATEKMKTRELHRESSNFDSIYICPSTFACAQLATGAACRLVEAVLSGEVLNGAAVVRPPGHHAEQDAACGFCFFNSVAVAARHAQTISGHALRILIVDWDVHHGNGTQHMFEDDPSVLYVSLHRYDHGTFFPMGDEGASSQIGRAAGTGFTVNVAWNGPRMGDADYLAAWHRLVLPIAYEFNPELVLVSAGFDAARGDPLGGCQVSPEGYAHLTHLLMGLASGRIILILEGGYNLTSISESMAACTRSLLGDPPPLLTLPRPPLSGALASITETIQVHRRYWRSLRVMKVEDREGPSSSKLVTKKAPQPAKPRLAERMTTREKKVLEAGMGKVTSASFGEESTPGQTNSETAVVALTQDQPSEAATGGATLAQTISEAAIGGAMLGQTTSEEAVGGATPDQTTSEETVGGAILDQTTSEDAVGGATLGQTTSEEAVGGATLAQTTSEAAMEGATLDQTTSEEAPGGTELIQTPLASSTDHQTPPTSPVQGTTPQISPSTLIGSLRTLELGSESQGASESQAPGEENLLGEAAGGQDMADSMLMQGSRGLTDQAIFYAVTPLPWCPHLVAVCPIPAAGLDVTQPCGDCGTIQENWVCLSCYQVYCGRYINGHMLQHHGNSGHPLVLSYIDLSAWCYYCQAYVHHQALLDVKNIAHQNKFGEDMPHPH
Method: This protocol is to determine the IC50s or percentage of inhibition values of the test compound against HDACs.
The HDAC Fluorescent Activity Assay is based on the unique Fluorogenic Substrate and Developer combination. […] First, the Fluorogenic Substrate, which comprises an acetylated lysine side chain, is incubated with a purified HDAC enzyme. Deacetylation of the substrate sensitizes the substrate so that, in the second step, treatment with the Developer produces a fluorophore.
Testing compounds were dissolved in 100% DMSO to specific concentration. […]
1. Deliver 2× enzyme in wells of reaction plate except No Enzyme control wells. Add buffer in No En wells.
2. Deliver compounds in 100% DMSO into the enzyme mixture by Acoustic technology (Echo550; nanoliter range). Spin down and pre-incubation.
3. Deliver 2× Substrate Mixture (Fluorogenic HDAC Substrate and co-factor if applicable) in all reaction wells to initiate the reaction. Spin and shake.
4. Incubate for 1-2 hr at 30° C. with seal.
5. Add Developer with Trichostatin A (or TMP269) to stop the reaction and to generate fluorescent color.
6. Fluorescence was read (excitatory, 360; emission, 460) using the EnVision Multilabel
7. Take endpoint reading for analysis after the development reaches plateau.
The percentages of enzyme activity (relative to DMSO controls) and IC50 values were calculated using the GraphPad Prism 4 program based on a sigmoidal dose-response equation.

[4] = system: Ovarian Cell Line OVCAR-3; experiment: cells; conditions: Homo sapiens, OVCAR-3, read-out: inhibition of proliferation
[5] = system: Leukemia Cell Line CCRF-CEM; experiment: cells; assay type: cell-based; conditions: Homo sapiens, read-out: inhibition of proliferation
[6] = system: Leukemia Cell Line MOLT-4; assay type: cell-based; conditions: Homo sapiens
[7] = system: Leukemia Cell Line RPMI-8226; assay type: cell-based; conditions: Homo sapiens
[8] = system: Breast Cancer Cell Line MDA-MB-468; experiment: cells; conditions: Homo sapiens, MDA-MB-468, read-out: inhibition of proliferation
[9] = system: Breast Cancer Cell Line BT-549; experiment: cells; assay type: cell-based; conditions: Homo sapiens
Ovarian Cell Line IGROV1 = assay type: cell-based; conditions: Homo sapiens
[10] = system: Ovarian Cell Line OVCAR-8; experiment: cells; assay type: cell-based; conditions: Homo sapiens; OVCAR-8; single dose, 10 uM compound concentration; read-out: inhibition of proliferation
[11] = system: Ovarian Cell Line NCI/ADR-RES; experiment: cells; assay type: cell-based; conditions: Homo sapiens, read-out: inhibition of proliferation
[12] = single dose, 10 uM compound concentration

Cc1nc2cccc(NCc3ccc(C(=O)NO)cc3)c2c(=O)n1-c1ccccc1 [Compound LX, N-hydroxy-4-(((2-methyl-4-oxo-3-phenyl-3,4-dihydroquinazolin-5-yl)amino)methyl)benzamide]
25 to 50%: inhibition at 10 µM ([1]; HS 578T, single dose, 10 uM compound concentration) | inhibition at 10 µM ([9]; BT-549, single dose, 10 uM compound concentration, read-out: inhibition of proliferation)
> 50%: inhibition at 10 µM (Leukemia Cell Line SR; SR, single dose, 10 uM compound concentration) | inhibition at 10 µM (Leukemia Cell Line K-562; K562, K-562, single dose, 10 uM compound concentration, read-out: inhibition of proliferation) | inhibition at 10 µM ([2]; HL-60(TB), single dose, 10 uM compound concentration, read-out: inhibition of proliferation) | inhibition at 10 µM ([3]; UACC-62, single dose, 10 uM compound concentration, read-out: inhibition of proliferation) | inhibition at 10 µM [4] | inhibition at 10 µM [5, 12] | inhibition at 10 µM ([6]; MOLT-4, single dose, 10 uM compound concentration, read-out: inhibition of proliferation) | inhibition at 10 µM ([7]; RPMI-8226, single dose, 10 uM compound concentration, read-out: inhibition of proliferation) | inhibition at 10 µM [8] | inhibition at 10 µM (Ovarian Cell Line IGROV1; IGROV-1, IGROV1, single dose, 10 uM compound concentration, read-out: inhibition of proliferation) | inhibition at 10 µM [10] | inhibition at 10 µM [11, 12]
< 100 nM: IC50 (HDAC6)

CC[C@H](Nc1ncnc2[nH]cnc12)c1nc2cccc(NCc3ccc(C(=O)NO)nc3)c2c(=O)n1-c1ccccc1 [V, (S)-5-(((2-(1-((9H-purin-6-yl)amino)propyl)-4-oxo-3-phenyl-3,4-dihydroquinazolin-5-yl)amino)methyl)-N-hydroxypicolinamide]
25 to 50%: inhibition at 10 µM (Ovarian Cell Line IGROV1; IGROV-1, read-out: inhibition of proliferation) | inhibition at 10 µM [11]
> 50%: inhibition at 10 µM (Leukemia Cell Line SR) | inhibition at 10 µM (Leukemia Cell Line K-562; K562, read-out: inhibition of proliferation) | inhibition at 10 µM ([1]; Hs-578T) | inhibition at 10 µM ([2]; HL-60, read-out: inhibition of proliferation) | inhibition at 10 µM ([3]; UACC-62, read-out: inhibition of proliferation) | inhibition at 10 µM [5] | inhibition at 10 µM ([6]; MOLT-4, read-out: inhibition of proliferation) | inhibition at 10 µM ([7]; RPMI-8226, read-out: inhibition of proliferation) | inhibition at 10 µM ([9]; BT-549, read-out: inhibition of proliferation)
